In ChEMBL document CHEMBL5291721, “A preclinical secondary pharmacology resource illuminates target-adverse drug reaction associations of marketed drugs” (Nat Commun, 2023) one finds AC50 data, which are given here for 15 molecules.

Some targets named below: Histamine H3 receptor (Homo sapiens, UniProt Q9Y5N1); Adenosine receptor A2a (Homo sapiens, UniProt P29274); Mu-type opioid receptor (Homo sapiens, UniProt P35372).
For experiment [1], the target named is Gamma-aminobutyric acid receptor subunit alpha-1 (Rattus norvegicus, UniProt P62813).
Gamma-aminobutyric acid receptor subunit alpha-1, sequence (P62813 whole entry): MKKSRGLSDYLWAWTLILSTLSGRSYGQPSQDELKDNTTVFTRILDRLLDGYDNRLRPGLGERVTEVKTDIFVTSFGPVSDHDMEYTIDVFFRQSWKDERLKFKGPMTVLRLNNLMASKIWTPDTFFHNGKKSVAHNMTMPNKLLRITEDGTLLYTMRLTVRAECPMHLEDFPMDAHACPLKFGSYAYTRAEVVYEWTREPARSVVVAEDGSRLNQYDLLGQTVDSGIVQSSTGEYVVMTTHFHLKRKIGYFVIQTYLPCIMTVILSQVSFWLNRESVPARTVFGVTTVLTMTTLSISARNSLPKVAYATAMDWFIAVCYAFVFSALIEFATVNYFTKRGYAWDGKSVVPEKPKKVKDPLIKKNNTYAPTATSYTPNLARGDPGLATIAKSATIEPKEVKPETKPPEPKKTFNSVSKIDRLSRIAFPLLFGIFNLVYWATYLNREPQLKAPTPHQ
Experiment [2] addresses T1, Amine oxidase [flavin-containing] A (Homo sapiens, UniProt P21397).
T1 sequence (P21397 whole entry): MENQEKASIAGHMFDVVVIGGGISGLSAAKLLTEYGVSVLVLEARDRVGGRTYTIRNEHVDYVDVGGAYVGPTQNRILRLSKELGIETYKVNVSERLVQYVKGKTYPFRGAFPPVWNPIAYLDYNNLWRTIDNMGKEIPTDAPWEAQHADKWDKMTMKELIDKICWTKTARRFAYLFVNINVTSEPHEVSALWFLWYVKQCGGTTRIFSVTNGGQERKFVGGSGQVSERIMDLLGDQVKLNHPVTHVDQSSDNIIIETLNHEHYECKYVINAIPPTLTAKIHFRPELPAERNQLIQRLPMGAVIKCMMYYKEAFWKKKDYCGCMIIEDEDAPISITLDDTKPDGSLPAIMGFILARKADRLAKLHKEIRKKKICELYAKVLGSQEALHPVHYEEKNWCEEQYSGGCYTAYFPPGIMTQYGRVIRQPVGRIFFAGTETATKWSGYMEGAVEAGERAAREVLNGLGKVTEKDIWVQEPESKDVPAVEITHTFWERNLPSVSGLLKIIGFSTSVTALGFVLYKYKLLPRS
The format is functional.

Experiment [3] has as its target T2, Beta-2 adrenergic receptor (Homo sapiens, UniProt P07550).
The target in experiment [4] is T2, Beta-2 adrenergic receptor. In kind it is functional, cell-based.
In the next experiment the target is Cannabinoid receptor 1 (Homo sapiens, UniProt P21554). In kind it is functional, cell-based.
Cannabinoid receptor 1, sequence (P21554 whole entry): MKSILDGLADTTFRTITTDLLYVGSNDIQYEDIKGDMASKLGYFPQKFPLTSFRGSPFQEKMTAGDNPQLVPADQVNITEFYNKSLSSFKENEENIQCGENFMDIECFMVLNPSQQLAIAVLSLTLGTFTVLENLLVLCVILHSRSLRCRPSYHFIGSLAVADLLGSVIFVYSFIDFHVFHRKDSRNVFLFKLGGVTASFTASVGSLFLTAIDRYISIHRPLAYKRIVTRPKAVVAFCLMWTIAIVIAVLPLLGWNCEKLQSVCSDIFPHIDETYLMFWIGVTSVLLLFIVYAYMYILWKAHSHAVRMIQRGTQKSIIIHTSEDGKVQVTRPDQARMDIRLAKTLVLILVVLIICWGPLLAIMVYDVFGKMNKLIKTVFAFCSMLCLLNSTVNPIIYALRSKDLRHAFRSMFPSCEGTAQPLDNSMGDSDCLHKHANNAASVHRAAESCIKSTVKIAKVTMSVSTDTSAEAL
Experiment [5] deals with Sodium-dependent noradrenaline transporter (Homo sapiens, UniProt P23975).
Experiment [6] deals with Sodium-dependent dopamine transporter (Homo sapiens, UniProt Q01959).
Sodium-dependent dopamine transporter, sequence (Q01959 whole entry): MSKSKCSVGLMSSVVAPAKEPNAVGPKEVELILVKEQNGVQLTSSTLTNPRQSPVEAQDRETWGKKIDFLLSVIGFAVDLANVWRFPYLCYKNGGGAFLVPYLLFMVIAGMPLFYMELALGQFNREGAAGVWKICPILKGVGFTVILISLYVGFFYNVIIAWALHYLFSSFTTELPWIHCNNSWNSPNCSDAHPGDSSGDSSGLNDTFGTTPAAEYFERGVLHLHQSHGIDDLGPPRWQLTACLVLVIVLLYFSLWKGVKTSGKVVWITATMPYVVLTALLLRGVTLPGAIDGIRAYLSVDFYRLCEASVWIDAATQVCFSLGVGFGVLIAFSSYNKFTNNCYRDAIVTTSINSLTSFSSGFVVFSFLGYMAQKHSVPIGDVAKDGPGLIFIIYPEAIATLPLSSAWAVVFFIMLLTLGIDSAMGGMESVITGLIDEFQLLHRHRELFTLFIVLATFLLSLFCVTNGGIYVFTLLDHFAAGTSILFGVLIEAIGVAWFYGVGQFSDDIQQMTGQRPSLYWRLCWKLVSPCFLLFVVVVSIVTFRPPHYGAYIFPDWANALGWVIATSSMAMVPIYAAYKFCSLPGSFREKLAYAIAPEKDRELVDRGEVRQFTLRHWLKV
The target of experiment [7] is 3',5'-cyclic-AMP phosphodiesterase 4D (Homo sapiens, UniProt Q08499). In kind it is functional.
3',5'-cyclic-AMP phosphodiesterase 4D, sequence (Q08499 whole entry): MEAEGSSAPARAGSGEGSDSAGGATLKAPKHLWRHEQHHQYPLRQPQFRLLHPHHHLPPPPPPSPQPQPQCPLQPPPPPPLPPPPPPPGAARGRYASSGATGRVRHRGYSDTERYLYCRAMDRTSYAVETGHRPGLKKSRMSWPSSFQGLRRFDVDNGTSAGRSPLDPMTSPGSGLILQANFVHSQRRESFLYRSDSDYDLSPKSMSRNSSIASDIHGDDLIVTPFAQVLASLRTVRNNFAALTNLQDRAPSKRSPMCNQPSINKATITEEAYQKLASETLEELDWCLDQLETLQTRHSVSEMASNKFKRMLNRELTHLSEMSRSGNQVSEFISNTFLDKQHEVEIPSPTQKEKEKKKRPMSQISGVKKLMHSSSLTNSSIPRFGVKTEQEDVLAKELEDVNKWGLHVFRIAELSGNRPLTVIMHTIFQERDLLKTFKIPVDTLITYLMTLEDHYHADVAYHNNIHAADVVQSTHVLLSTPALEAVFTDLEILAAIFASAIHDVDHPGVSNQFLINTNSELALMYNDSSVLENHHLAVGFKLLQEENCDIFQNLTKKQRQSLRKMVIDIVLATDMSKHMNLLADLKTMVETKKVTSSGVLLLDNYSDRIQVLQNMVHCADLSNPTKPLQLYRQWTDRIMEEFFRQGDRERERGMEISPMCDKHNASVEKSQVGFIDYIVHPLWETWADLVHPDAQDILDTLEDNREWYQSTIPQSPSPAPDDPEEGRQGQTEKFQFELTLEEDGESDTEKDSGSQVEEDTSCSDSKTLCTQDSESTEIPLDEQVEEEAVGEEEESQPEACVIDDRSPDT
In experiment [8] the target is cGMP-inhibited 3',5'-cyclic phosphodiesterase 3A (Homo sapiens, UniProt Q14432). The format is functional.
cGMP-inhibited 3',5'-cyclic phosphodiesterase 3A, sequence (Q14432 whole entry): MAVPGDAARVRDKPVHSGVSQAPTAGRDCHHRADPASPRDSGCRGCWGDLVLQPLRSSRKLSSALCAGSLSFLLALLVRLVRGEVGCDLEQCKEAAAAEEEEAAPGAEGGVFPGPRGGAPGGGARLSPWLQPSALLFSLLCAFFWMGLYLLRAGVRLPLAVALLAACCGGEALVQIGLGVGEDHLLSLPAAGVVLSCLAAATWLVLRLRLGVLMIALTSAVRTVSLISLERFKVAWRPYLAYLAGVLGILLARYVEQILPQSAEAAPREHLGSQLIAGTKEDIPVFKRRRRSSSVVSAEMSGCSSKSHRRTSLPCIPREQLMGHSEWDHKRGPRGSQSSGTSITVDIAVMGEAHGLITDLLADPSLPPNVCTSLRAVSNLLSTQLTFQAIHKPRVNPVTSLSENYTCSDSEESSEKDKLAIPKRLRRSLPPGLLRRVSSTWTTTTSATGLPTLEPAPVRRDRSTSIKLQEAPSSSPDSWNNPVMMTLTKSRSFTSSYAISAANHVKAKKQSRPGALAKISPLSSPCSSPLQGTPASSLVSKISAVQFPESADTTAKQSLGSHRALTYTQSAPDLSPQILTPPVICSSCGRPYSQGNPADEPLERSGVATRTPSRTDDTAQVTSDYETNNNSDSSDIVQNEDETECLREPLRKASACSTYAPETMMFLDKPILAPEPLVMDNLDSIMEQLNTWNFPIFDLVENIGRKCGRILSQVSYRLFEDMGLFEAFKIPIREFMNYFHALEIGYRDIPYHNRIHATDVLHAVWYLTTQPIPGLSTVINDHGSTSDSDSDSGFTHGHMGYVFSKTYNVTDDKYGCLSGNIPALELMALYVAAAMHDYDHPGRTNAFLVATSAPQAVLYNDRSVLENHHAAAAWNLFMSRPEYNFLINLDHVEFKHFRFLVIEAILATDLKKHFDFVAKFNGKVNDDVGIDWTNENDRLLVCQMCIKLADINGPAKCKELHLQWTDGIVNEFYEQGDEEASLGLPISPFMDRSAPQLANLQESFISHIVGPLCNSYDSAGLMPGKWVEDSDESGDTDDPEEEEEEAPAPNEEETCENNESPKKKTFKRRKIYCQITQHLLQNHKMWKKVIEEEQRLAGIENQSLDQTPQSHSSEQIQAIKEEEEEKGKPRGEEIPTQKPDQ
Experiment [9] deals with T3, Alpha-1A adrenergic receptor (Homo sapiens, UniProt P35348).
T3 sequence (P35348 whole entry): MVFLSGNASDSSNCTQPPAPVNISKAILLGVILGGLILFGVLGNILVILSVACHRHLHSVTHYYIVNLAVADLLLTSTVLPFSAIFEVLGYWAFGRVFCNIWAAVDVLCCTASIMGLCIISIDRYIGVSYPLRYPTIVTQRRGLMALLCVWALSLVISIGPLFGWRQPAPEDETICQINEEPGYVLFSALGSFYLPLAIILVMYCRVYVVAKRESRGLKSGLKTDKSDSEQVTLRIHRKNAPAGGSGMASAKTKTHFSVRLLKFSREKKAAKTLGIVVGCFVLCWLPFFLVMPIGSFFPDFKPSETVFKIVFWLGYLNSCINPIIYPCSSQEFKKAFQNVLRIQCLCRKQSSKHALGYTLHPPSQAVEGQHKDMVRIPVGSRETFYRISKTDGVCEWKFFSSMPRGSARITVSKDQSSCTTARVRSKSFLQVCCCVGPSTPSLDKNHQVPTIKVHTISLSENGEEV
In kind it is functional, cell-based.

Another experiment has as its target T4, Progesterone receptor (Homo sapiens, UniProt P06401).
T4 sequence (P06401 whole entry): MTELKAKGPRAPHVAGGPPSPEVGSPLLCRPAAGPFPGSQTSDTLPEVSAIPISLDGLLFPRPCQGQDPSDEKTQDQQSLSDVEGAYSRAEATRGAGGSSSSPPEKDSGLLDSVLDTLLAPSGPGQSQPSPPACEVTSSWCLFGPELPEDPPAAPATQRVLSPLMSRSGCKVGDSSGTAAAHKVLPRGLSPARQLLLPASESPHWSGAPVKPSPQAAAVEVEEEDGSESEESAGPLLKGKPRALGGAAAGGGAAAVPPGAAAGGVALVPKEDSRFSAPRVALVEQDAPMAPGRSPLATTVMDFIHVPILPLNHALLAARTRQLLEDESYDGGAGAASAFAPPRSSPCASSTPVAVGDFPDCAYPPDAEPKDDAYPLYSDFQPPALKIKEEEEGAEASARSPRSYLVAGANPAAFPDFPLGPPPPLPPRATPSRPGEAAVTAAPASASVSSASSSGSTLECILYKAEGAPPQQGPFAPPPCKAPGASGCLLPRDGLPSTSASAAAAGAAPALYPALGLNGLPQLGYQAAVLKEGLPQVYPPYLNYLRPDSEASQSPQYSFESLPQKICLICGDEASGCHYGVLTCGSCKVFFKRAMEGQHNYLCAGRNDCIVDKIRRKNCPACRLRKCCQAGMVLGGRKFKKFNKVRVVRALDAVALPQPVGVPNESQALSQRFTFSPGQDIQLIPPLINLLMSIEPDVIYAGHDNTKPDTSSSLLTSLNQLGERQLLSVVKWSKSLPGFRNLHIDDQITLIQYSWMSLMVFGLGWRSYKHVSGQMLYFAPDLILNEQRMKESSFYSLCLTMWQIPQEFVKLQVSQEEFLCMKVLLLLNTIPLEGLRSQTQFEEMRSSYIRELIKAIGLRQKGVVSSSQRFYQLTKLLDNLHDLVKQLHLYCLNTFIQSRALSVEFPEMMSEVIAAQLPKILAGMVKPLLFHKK
In kind it is functional.
Also: assay procedure not described here.

Mu-type opioid receptor, sequence (P35372 whole entry): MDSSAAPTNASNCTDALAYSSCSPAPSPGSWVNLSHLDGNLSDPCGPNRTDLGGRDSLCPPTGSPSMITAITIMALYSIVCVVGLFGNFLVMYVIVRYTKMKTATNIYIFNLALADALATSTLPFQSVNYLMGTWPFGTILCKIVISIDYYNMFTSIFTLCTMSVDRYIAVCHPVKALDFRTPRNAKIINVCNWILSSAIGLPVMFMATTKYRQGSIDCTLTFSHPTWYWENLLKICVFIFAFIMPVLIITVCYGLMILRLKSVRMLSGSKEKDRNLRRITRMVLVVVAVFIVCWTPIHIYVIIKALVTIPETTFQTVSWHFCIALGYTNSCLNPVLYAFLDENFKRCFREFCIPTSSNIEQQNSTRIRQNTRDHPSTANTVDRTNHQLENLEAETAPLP
T2 sequence (P07550 whole entry): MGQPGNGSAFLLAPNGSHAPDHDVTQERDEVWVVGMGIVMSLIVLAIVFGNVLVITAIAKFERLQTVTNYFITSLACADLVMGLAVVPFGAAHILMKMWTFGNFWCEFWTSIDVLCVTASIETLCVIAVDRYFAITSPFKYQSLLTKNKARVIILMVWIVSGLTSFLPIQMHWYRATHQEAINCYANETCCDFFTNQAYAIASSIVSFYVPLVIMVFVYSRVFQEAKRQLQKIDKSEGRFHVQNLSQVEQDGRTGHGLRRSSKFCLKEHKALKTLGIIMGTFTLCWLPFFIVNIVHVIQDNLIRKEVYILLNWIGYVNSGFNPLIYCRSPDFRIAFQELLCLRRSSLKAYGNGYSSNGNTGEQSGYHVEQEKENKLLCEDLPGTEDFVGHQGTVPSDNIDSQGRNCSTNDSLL
Histamine H3 receptor, sequence (Q9Y5N1 whole entry): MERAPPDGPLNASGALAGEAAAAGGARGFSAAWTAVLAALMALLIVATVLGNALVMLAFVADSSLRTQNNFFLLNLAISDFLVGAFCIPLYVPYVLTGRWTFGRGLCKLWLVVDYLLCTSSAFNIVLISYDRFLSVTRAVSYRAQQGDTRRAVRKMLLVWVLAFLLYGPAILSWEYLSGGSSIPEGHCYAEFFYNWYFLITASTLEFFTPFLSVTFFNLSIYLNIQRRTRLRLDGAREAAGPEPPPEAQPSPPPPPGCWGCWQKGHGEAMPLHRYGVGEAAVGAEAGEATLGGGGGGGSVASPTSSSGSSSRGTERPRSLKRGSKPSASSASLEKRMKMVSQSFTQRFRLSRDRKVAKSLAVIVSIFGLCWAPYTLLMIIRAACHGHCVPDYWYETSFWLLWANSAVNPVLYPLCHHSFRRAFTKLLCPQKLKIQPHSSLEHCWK

On to `NC(=O)c1cccc2cn(-c3ccc([C@@H]4CCCNC4)cc3)nc12` [NIRAPARIB], for which the AC50 (commonly the concentration at which the activity in the assay is half-maximal) in experiment [1] was greater than 30 µM.
`Cn1cc[nH]c1=S` [METHIMAZOLE]: the AC50 in experiment [1] was greater than 30 µM.
Consider `NCc1ccccc1CC(=O)N[C@@H]1C(=O)N2C(C(=O)O)=C(CSc3nnnn3CC(=O)O)CS[C@H]12` [CEFORANIDE], for which the AC50 in experiment [1] was greater than 30 µM.
Turning to `CC(C)(N)Cc1ccc(Cl)cc1` [CHLORPHENTERMINE], the AC50 on Histamine H3 receptor was greater than 10 µM; in experiment [2], greater than 10 µM; in [3] it was greater than 10 µM; in [4] it was greater than 30 µM; on Cannabinoid receptor 1 it was greater than 30 µM; in experiment [5], 13.7 µM. In addition, the AC50 is greater than 30 µM on Adenosine receptor A2a; 7.59 µM in experiment [6]; greater than 30 µM in experiment [7]; greater than 30 µM in experiment [8]; greater than 30 µM at Mu-type opioid receptor; greater than 30 µM in experiment [9].
Turning to `O=[N+]([O-])c1cncn1CCN1CCOCC1` [NIMORAZOLE], the AC50 in experiment [1] was greater than 30 µM.
Take `C=C1C[C@@H]2[C@H](CC[C@]3(C)C(=O)CC[C@@H]23)[C@@]2(C)C=CC(=O)C=C12` [EXEMESTANE]: the AC50 on Histamine H3 receptor is greater than 10 µM; in experiment [2] it was greater than 10 µM; in experiment [3], greater than 10 µM; in experiment [4], greater than 30 µM; at Cannabinoid receptor 1, greater than 30 µM; in [5], greater than 30 µM. The AC50 (at Adenosine receptor A2a; in experiment [6]; in [7]; in [8]; at Mu-type opioid receptor; in experiment [9]) was greater than 30 µM in each case.
Take `COc1cc2c(cc1OC)[C@H]1C[C@@H](OC(=O)[C@@H](N)C(C)C)[C@H](CC(C)C)CN1CC2` [VALBENAZINE]: in experiment [1], the AC50 is greater than 30 µM.
With `NS(=O)(=O)c1cc(Cl)c(Cl)c(S(N)(=O)=O)c1` [DICHLORPHENAMIDE], the AC50 is greater than 10 µM at Histamine H3 receptor; greater than 10 µM in experiment [2]; greater than 10 µM in experiment [3]; greater than 30 µM in [4]; greater than 30 µM on Cannabinoid receptor 1; greater than 10 µM in experiment [5]. Further, the AC50 on Progesterone receptor is greater than 10 µM; on Adenosine receptor A2a, greater than 10 µM; in experiment [6], greater than 10 µM; in experiment [7], greater than 30 µM; in experiment [8], greater than 30 µM; at Mu-type opioid receptor, greater than 30 µM. Further, the AC50 in [9] is greater than 30 µM.
In experiment [1], `CCS(=O)(=O)N1CC(CC#N)(n2cc(-c3ncnc4[nH]ccc34)cn2)C1` [BARICITINIB] showed an AC50 greater than 30 µM.
As to `CN(C/C=C/c1ccccc1)Cc1cccc2ccccc12` [NAFTIFINE], the AC50 was greater than 10 µM on Histamine H3 receptor; greater than 10 µM in experiment [2]; greater than 30 µM in experiment [3]; greater than 30 µM in [4]; greater than 30 µM on Cannabinoid receptor 1; 11.1 µM in [5]. Besides, the concentration at half-maximal activity (AC50) is greater than 30 µM on Progesterone receptor; greater than 30 µM on Adenosine receptor A2a; 17.3 µM in experiment [6]; greater than 30 µM in experiment [7]; greater than 30 µM in experiment [8]; greater than 30 µM on Mu-type opioid receptor. Further, in experiment [9], the AC50 was greater than 30 µM.
`CCOC(=O)CC(SP(=S)(OC)OC)C(=O)OCC` (configuration not stated) [MALATHION]: the AC50 in experiment [1] was greater than 30 µM.
With `COc1cc(NCc2ccc3nc(N)nc(N)c3c2C)cc(OC)c1OC` [TRIMETREXATE], in [1], the AC50 is greater than 30 µM.
As to `CC(C)=CCC1C(=O)N(c2ccccc2)N(c2ccccc2)C1=O` [FEPRAZONE], the AC50 in experiment [1] is greater than 30 µM.
`CO[C@@]12[C@H](COC(N)=O)C3=C(C(=O)C(C)=C(N)C3=O)N1C[C@@H]1N[C@@H]12` [MITOMYCIN]: the AC50 in experiment [1] is greater than 30 µM.
On to `C[N+](C)(C)CCOC(N)=O` [CARBAMOYLCHOLINE], for which the AC50 in [2] was greater than 10 µM; in experiment [3], greater than 10 µM; in [4], greater than 30 µM; at Cannabinoid receptor 1 it was greater than 30 µM; in experiment [5], greater than 10 µM; at Progesterone receptor, greater than 10 µM. Moreover, the AC50 is greater than 10 µM on Adenosine receptor A2a; greater than 10 µM in experiment [6]; greater than 30 µM in [7]; greater than 30 µM in experiment [8]; greater than 30 µM on Mu-type opioid receptor; greater than 30 µM in experiment [9].
